Assay results: patent publication US10167257B2, “Indole derivatives for use in medicine” (IOmet Pharma Ltd., priority 2014, dated 2019)

Columns and labels:
[1] = target: T1, TDO (A172 cells) (Homo sapiens, UniProt P48775); assay: TDO cell-based assay (A172), kynurenine production; details: A172 human glioblastoma cells, 500 μM L-Trp, 48 h, kynurenine by absorbance at 490 nm
T1 construct: This assay utilised cancer cells which expressed either TDO or IDO; host or cells: A172 human glioblastoma cells
T1 sequence (P48775 whole entry): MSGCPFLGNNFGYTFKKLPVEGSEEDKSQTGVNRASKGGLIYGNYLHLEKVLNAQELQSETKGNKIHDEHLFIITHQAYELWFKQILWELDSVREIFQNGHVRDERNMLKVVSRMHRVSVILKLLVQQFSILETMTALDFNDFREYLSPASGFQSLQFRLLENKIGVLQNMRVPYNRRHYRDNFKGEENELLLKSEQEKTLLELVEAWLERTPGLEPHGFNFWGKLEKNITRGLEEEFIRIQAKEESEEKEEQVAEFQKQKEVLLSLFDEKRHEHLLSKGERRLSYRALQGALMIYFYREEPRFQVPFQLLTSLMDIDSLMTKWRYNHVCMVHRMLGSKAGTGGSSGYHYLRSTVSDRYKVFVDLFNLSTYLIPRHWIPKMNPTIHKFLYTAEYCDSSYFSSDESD
From the text: (§1) Two different types of assay were employed: 1. A TDO and IDO biochemical coupled assay which utilised recombinantly produced and purified TDO and IDO enzymes in combination with the enzyme formamidase. This coupled enzyme system allowed conversion of N-formylkynurenine produced by TDO or IDO activity to kynurenine which was then quantified by fluorescence following addition of Erhlich's Reagent. 2. A cell-based assay for detecting the effect of test compounds on kynurenine production in two different cancer cell types. This assay utilised cancer cells which expressed either TDO or IDO and as such was used as a means of testing compound activity at these two enzymes in a cell-based context. The protocols for these are set out below.
(§2) A172 human glioblastoma (ATCC) were grown in DMEM+2 mM L-glutamine medium supplemented with 10% foetal bovine serum and SKOV-3 ovary adenocarcinoma (ATCC) cells were grown in McCoys 5A+L-glutamax medium supplemented with 15% foetal bovine serum. On the day of assay, cells were detached using trypsin-EDTA (0.25% v/v), re-suspended in assay media (RPMI 1640 phenol red free+L-glutamine supplemented with 10% dialysed foetal bovine serum). A172 cells were seeded at 30K cells per well and SKOV-3 cells at 40K cells per well into 96-well plates containing test samples/vehicle control together with 500 μM L-Trp. Cells were then incubated for 48 h at 37° C., 5% CO2. In SK-OV-3 cells, IFNγ was also added at 500 ng/ml for the 48 h incubation in order to induce expression of IDO. Plates were centrifuged and the supernatant was removed and incubated for 5 min in the presence of 1% Erhlich's reagent. Kynurenine levels were then quantified by measuring absorbance at 490 nm.

[2] = target: T2, IDO (SKOV-3 cells) (Homo sapiens, UniProt P14902); assay: IDO cell-based assay (SKOV-3, IFNγ-induced), kynurenine production; details: SKOV-3 ovary adenocarcinoma cells, IFNγ 500 ng/ml, 500 μM L-Trp, 48 h, kynurenine by absorbance at 490 nm
T2 construct: This assay utilised cancer cells which expressed either TDO or IDO; host or cells: SKOV-3 ovary adenocarcinoma cells, IFNγ-induced
T2 sequence (P14902 whole entry): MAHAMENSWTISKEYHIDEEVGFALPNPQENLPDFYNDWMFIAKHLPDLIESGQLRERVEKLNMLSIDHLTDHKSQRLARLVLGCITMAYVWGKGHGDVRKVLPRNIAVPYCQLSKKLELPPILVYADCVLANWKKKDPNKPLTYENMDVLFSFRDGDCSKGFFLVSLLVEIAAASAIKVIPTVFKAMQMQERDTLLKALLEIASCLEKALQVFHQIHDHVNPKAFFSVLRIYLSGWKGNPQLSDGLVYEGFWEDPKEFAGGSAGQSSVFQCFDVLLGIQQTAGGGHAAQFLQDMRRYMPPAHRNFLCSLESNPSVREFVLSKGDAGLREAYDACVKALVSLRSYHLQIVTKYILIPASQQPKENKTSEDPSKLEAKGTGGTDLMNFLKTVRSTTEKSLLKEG
From the text: as §1, §2

Row | TDO cellular assay (A172) pIC50 [1] | IDO cellular assay (SKOV3) pIC50 [2] | IC50 ([1]; read-out: TDO cellular assay (A172) pIC50 (converted)) [µM] | IC50 ([2]; read-out: IDO cellular assay (SKOV3) pIC50 (converted)) [µM] | Compound
1 | ++ (++ = pIC50 5.00-<5.50) | ++ (++ = pIC50 5.00-<5.50) |  |  | C[C@@H](NC(=O)c1cc2ccc(Cl)cc2[nH]1)c1ccccc1 [Compound 47]
2 |  |  | 3.16 to 10 | ≤ 3.16 | C[C@@H](NC(=O)c1cc2cc(Cl)ccc2[nH]1)c1ccccc1 [Compound 48]
3 | + (+ = pIC50 4.50-<5.00) | ++ (++ = pIC50 5.00-<5.50) |  |  | C[C@H](NC(=O)c1cc2ccc(Cl)cc2[nH]1)c1ccccc1 [Compound 49]
4 | +++ (+++ = pIC50 ≥5.50) | +++ (+++ = pIC50 ≥5.50) |  |  | C[C@H](NC(=O)c1cc2cc(Cl)ccc2[nH]1)c1ccccc1 [Compound 50]
5 | + (+ = pIC50 4.50-<5.00) | + (+ = pIC50 4.50-<5.00) |  |  | O=C(NCc1cc2cc(F)ccc2[nH]1)c1ccccc1 [Compound 52]
6 | − (− = pIC50 <4.50) | + (+ = pIC50 4.50-<5.00) |  |  | C[C@@H](NC(=O)c1cc2c([nH]1)CCCC2)c1ccccc1 [Compound 53]
7 | − (− = pIC50 <4.50) | + (+ = pIC50 4.50-<5.00) |  |  | CC(NC(=O)c1cc2cc(F)ccc2[nH]1)c1cccnc1 (stereo not drawn) [Compound 54]
8 | + (+ = pIC50 4.50-<5.00) | − (− = pIC50 <4.50) |  |  | O=S(=O)(NCc1cc2cc(F)ccc2[nH]1)c1ccccc1 [Compound 57]
9 | − (− = pIC50 <4.50) | ++ (++ = pIC50 5.00-<5.50) |  |  | CC(NC(=O)c1cc2cc(F)ccc2[nH]1)c1ccncc1 (stereo not drawn) [Compound 58]
10 | + (+ = pIC50 4.50-<5.00) | + (+ = pIC50 4.50-<5.00) |  |  | Cc1c(C(=O)N[C@@H](C)c2ccccc2)[nH]c2ccc(F)cc12 [Compound 60]
11 | + (+ = pIC50 4.50-<5.00) | + (+ = pIC50 4.50-<5.00) |  |  | C[C@H](NC(=O)c1cc2cccc(F)c2[nH]1)c1ccccc1 [Compound 63]
12 | ++ (++ = pIC50 5.00-<5.50) | ++ (++ = pIC50 5.00-<5.50) |  |  | O=C(Nc1cccc2ncccc12)c1cc2ccc(F)cc2[nH]1 [Compound 64]
13 | ++ (++ = pIC50 5.00-<5.50) | +++ (+++ = pIC50 ≥5.50) |  |  | CC(NC(=O)c1cc2cc(Cl)ccc2[nH]1)C1CCCCC1 (stereo not drawn) [Compound 69]
14 | ++ (++ = pIC50 5.00-<5.50) | +++ (+++ = pIC50 ≥5.50) |  |  | COc1ccc(C(C)NC(=O)c2cc3cc(Cl)ccc3[nH]2)cc1 (stereo not drawn) [Compound 70]
15 | + (+ = pIC50 4.50-<5.00) | +++ (+++ = pIC50 ≥5.50) |  |  | CC(C)C(C)NC(=O)c1cc2cc(Cl)ccc2[nH]1 (stereo not drawn) [Compound 71]
16 | − (− = pIC50 <4.50) | +++ (+++ = pIC50 ≥5.50) |  |  | C[C@H](NC(=O)c1cc2cc(Cl)ccc2[nH]1)c1ccc(Cl)cc1 [Compound 75]
17 | − (− = pIC50 <4.50) | + (+ = pIC50 4.50-<5.00) |  |  | C[C@H](NC(=O)c1nc2ccccc2o1)c1ccccc1 [Compound 76]
18 | + (+ = pIC50 4.50-<5.00) | +++ (+++ = pIC50 ≥5.50) |  |  | Cc1cccc2[nH]c(C(=O)NC(C)c3ccccc3)cc12 (stereo not drawn) [Compound 77]
19 | − (− = pIC50 <4.50) | + (+ = pIC50 4.50-<5.00) |  |  | CC(NC(=O)c1cc2ccncc2[nH]1)c1ccccc1 (stereo not drawn) [Compound 81]
20 | ++ (++ = pIC50 5.00-<5.50) | ++ (++ = pIC50 5.00-<5.50) |  |  | CC(NC(=O)c1cc2ccc(C#N)cc2[nH]1)c1ccccc1 (stereo not drawn) [Compound 85]

Continued, compound first:

Row | Compound | TDO cellular assay (A172) pIC50 [1] | IDO cellular assay (SKOV3) pIC50 [2] | IC50 ([1]; read-out: TDO cellular assay (A172) pIC50 (converted)) [µM] | IC50 ([2]; read-out: IDO cellular assay (SKOV3) pIC50 (converted)) [µM]
21 | O=C(Nc1cccc2ccccc12)c1cc2cc(F)ccc2[nH]1 [Compound 51] | − (− = pIC50 <4.50) | +++ (+++ = pIC50 ≥5.50) |  | 
22 | C[C@H](NC(=O)c1cc2c([nH]1)CCCC2)c1ccccc1 [Compound 55] | + (+ = pIC50 4.50-<5.00) | − (− = pIC50 <4.50) |  | 
23 | C[C@H](NC(=O)c1cc2c(F)cccc2[nH]1)c1ccccc1 [Compound 56] | + (+ = pIC50 4.50-<5.00) | + (+ = pIC50 4.50-<5.00) |  | 
24 | C[C@@H](c1ccccc1)N(C)C(=O)c1cc2cc(F)ccc2[nH]1 [Compound 59] | − (− = pIC50 <4.50) | + (+ = pIC50 4.50-<5.00) |  | 
25 | C[C@@H](NC(=O)c1cc2cccc(F)c2[nH]1)c1ccccc1 [Compound 61] | +++ (+++ = pIC50 ≥5.50) | +++ (+++ = pIC50 ≥5.50) |  | 
26 | C[C@@H](NC(=O)c1cc2c(F)cccc2[nH]1)c1ccccc1 [Compound 62] | +++ (+++ = pIC50 ≥5.50) | +++ (+++ = pIC50 ≥5.50) |  | 
27 | O=C(Nc1cccc2ccccc12)c1cc2ccc(F)cc2[nH]1 [Compound 65] | − (− = pIC50 <4.50) | +++ (+++ = pIC50 ≥5.50) |  | 
28 | O=C(NC1CCCc2ccccc21)c1cc2ccccc2[nH]1 (stereo not drawn) [Compound 66] | − (− = pIC50 <4.50) | ++ (++ = pIC50 5.00-<5.50) |  | 
29 | CC(C)NC(=O)c1cc2cc(Cl)ccc2[nH]1 [Compound 67] | ++ (++ = pIC50 5.00-<5.50) | + (+ = pIC50 4.50-<5.00) |  | 
30 | CC(C)(NC(=O)c1cc2cc(Cl)ccc2[nH]1)c1ccccc1 [Compound 68] | ++ (++ = pIC50 5.00-<5.50) | +++ (+++ = pIC50 ≥5.50) |  | 
31 | C[C@@H](NC(=O)c1cc2cc(Cl)ccc2[nH]1)c1ccc(Cl)cc1 [Compound 72] | − (− = pIC50 <4.50) | +++ (+++ = pIC50 ≥5.50) |  | 
32 | C[C@@H](NC(=O)c1nc2ccccc2o1)c1ccccc1 [Compound 73] | − (− = pIC50 <4.50) | + (+ = pIC50 4.50-<5.00) |  | 
33 | O=C(NC1CCOc2ccccc21)c1cc2ccccc2[nH]1 (stereo not drawn) [Compound 74] | − (− = pIC50 <4.50) | + (+ = pIC50 4.50-<5.00) |  | 
34 | Cc1ccc2cc(C(=O)NC(C)c3ccccc3)[nH]c2c1 (stereo not drawn) [Compound 78] | + (+ = pIC50 4.50-<5.00) | ++ (++ = pIC50 5.00-<5.50) |  | 
35 | CC(NC(=O)c1cc2cnccc2[nH]1)c1ccccc1 (stereo not drawn) [Compound 79] | − (− = pIC50 <4.50) | + (+ = pIC50 4.50-<5.00) |  | 
36 | CC(NC(=O)c1cc2cccnc2[nH]1)c1ccccc1 (stereo not drawn) [Compound 80] | − (− = pIC50 <4.50) | ++ (++ = pIC50 5.00-<5.50) |  | 
37 | CC(NC(=O)c1cc2cc(C#N)ccc2[nH]1)c1ccccc1 (stereo not drawn) [Compound 82] | +++ (+++ = pIC50 ≥5.50) | +++ (+++ = pIC50 ≥5.50) |  | 
38 | CC(NC(=O)c1cc2cc(Cl)ccc2[nH]1)c1ccc(S(C)(=O)=O)cc1 (stereo not drawn) [Compound 84] | ++ (++ = pIC50 5.00-<5.50) | +++ (+++ = pIC50 ≥5.50) |  | 
39 | CC(Cc1ccccc1)NC(=O)c1cc2cc(Cl)ccc2[nH]1 (stereo not drawn) [Compound 86] | +++ (+++ = pIC50 ≥5.50) | +++ (+++ = pIC50 ≥5.50) |  | 
